Drawing on patent US6579890B1, “Matrix metalloprotease inhibitors” (Syntex (U.S.A.) Inc., priority 1993, dated 2003), this text covers melting point for one compound.

In general, melting point refers to the temperature, or range, at which the solid turns liquid.

Consider `CC(C)(C)[C@H](NC(=O)[C@H](CCCc1ccc(-c2ccccc2)cc1)CC(=O)O)C(=O)Nc1ccncc1` [Example 32A, N-(2R-carboxymethyl-5-(biphen-4-yl)pentanoyl)-L-t-leucine-N′-(pyridin-4-yl)carboxamide], for which the melting point is 198 to 201 °C.
